Experimental findings from US20230381077A1, “Antibacterial And Deodorizing Composition, And Preparation Method Therefor” (LG Chem, Ltd., priority 2021, published 2023) are described below.

The test system of one experiment is Proteus mirabilis. Briefly: Antibacterial power measurement of first compound (bacterial inhibition rate, broth, absorbance 600 nm). Type of experiment: cell-based. The settings on record: 0.01 g first compound in 25 ml broth, 3,000 CFU/ml, 35° C. for 16 hours.
For another experiment, the system named is E. coli. Described as above. Type of experiment: cell-based. To be noted: Escherichia coli, 0.01 g first compound in 25 ml broth, 3,000 CFU/ml, 35° C. for 16 hours.

A word on the inhibition of growth: it is the relative decrease from the control value, in per cent. A lower inhibition of growth goes with a weak effect. For the molecule `CCCCCCCCCC[N+](C)(CCO)CCO` [Antibacterial Deodorant Monomer A], the inhibition of growth at 400 µg/mL in the experiment on Proteus mirabilis was 99.9%; with E. coli it was 98.9%.
Regarding `CCCCCCCC[N+](C)(CCO)CCO` [Antibacterial Deodorant Monomer B], the inhibition of growth at 400 µg/mL turned out to be 91.2% in the experiment on Proteus mirabilis and 89.3% in the experiment with E. coli.
Take `CCCCCCCCCC[N+](C)(C)CCO` [Antibacterial Deodorant Monomer D]: the inhibition of growth at 400 µg/mL in the experiment with Proteus mirabilis stood at 91.7%; in the experiment on E. coli, 94.4%.
Taken in the same sequence, the figures for `CCCCCCCCCCCC[N+](C)(C)CCO` [Antibacterial Deodorant Monomer E] were 96.9% and 96.1%.
In the case of `CCCCCCCCCC[N+](C)(C)CCO` [Antibacterial Deodorant Monomer F], the figures for the inhibition of growth at 400 µg/mL in the experiment with Proteus mirabilis (16 h) and in the experiment with E. coli (16 h) were 83.1% and 96.4%, respectively.
On to `CCCC[N+](C)(CCO)CCO` [Antibacterial Deodorant Monomer G], for which the inhibition of growth at 400 µg/mL is 18.3% with Proteus mirabilis and 15.2% in the experiment on E. coli.
For `CCCCCCCCCCCC[N+](C)(C)CCCCCCCCCCCC` [Didodecyldimethylammonium chloride, reference compound], the inhibition of growth at 400 µg/mL in the experiment on Proteus mirabilis amounted to 88.5%; in the experiment on E. coli it was 90.1%.
In the case of `N=C(N)N` [Guanidine, reference compound], the results for the inhibition of growth at 400 µg/mL in the experiment on Proteus mirabilis and with E. coli were 97.2% and 96.5%, respectively.
In the case of `CCCCCCCCCCCCCCCC[N+](C)(C)C` [Hexadecyltrimethylammonium chloride, reference compound], the figures for the inhibition of growth at 400 µg/mL with Proteus mirabilis (16 h) and in the experiment with E. coli (16 h) were 93.5% and 92.1%, respectively.
With `CCCCCCCCCC[N+](C)(C)CCCCCCCCO` [reference compound], the inhibition of growth at 400 µg/mL came to 85.1% in the experiment on Proteus mirabilis and 82.1% in the experiment with E. coli.
Taken in the same sequence, the figures for `CCCCCCCCCCCC[N+](CCO)(CCCCCCCCCC)CCCCCCCCCCCC` [reference compound] were 81.3% and 79.8%.
